From PubChem BioAssay (NCI)
“And” between values parts separate entries of the source, which are not always exact repeats. Equal values may be shown once.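 96-well plates; 48 h exposure; 5 concentrations. Endpoints by linear interpolation between flanking doses. Not reached: highest tested concentration assigned. At the GI50, growth is halved. TGI: total growth inhibition.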

Assays:
Assay in all cases: inhibition of tumour cell growth, NCI panel, 48 h
[1] = system: A498 renal
[2] = system: BT-549 breast
[3] = system: COLO 205 colon
[4] = system: HCT-15 colon
[5] = system: K-562 leukemia
[6] = system: KM12 colon
[7] = system: NCI/ADR-RES ovarian
[8] = system: OVCAR-5 ovarian
[9] = system: SK-MEL-2 melanoma
[10] = system: SNB-19 CNS

Structure (SMILES)	GI50 [1] [µM]	TGI [1]	GI50 [2] [µM]	TGI [2]	GI50 [3] [µM]	TGI [3]	GI50 [4] [µM]	TGI [4]	GI50 [5] [µM]	TGI [5] [µM]	GI50 [6] [µM]	TGI [6]	GI50 [7] [µM]	TGI [7]	GI50 [8] [µM]	TGI [8]	GI50 [9] [µM]	TGI [9]	GI50 [10] [µM]	TGI [10]
c1cc(C2CCCCC2)ccc1-c1cnc2nonc2n1	0.565	2.32 µM	1.29	3.25 µM	1.99	6.39 µM	0.438	2.26 µM	0.4	18.8	0.973	3.65 µM	0.466	2.72 µM	1.7	4.04 µM	1.31	3.62 µM	1.46	3.55 µM
C=C(C)C1CCC2=CC(CC3(C)OC3C3=CC(C(=O)OC)=C(C1)O3)OC2=O (configuration not stated)		> 100 µM		> 100 µM				> 100 µM		> 100		> 100 µM		> 100 µM		> 100 µM		> 100 µM		> 100 µM
CC(C)(C)C(=O)c1c(C(F)(F)F)n([O-])c2cc(Cl)c(Cl)cc2[n+]1=O	1.33	2.6 µM	0.769	2.11 µM	0.683	1.69 µM	0.257	0.652 µM	0.582	1.15	0.19	0.45 µM	0.567	1.37 µM	0.642	2.19 µM	0.903	2.28 µM	0.609	1.28 µM
CSc1ccc(NC(=O)Nc2cc(C)ccn2)cc1		> 100 µM		> 100 µM		> 100 µM		> 100 µM		> 100		> 100 µM		> 100 µM		> 100 µM		> 100 µM		> 100 µM
O=C(N/N=C/c1cc(Cl)ccc1O)c1ccccc1Nc1ccnc(C(F)(F)F)c1	0.585	7.9 µM	1.08	25.7 µM	0.36	13 µM	0.152	13.6 µM	0.686	14.5	0.604	11.5 µM	0.473	9.03 µM	1.67	25.6 µM	2.71	19.9 µM	0.89	24.3 µM
Cc1cc(-c2nc3n(c2/C=N/N=C(N)N)CCS3)c(C)s1	18.5	33.6 µM	23.1	42.5 µM			14.8	28 µM	19.1	42.4	6.7	21.2 µM	74.4	> 100 µM	14.9	29.8 µM			17.2	35.3 µM
CN(C)C(=S)/N=c1\ssc(=S)n1Cc1ccco1		> 74.2 µM		84.8 µM		> 100 µM		> 100 µM		> 55.7		> 100 µM				> 100 µM		30.3 µM		> 78.4 µM
C(=C\c1ccncc1)/c1ccncc1	10	> 100 µM	> 100	> 100 µM	> 100	> 100 µM	> 100	> 100 µM	> 100	> 100	> 100	> 100 µM	> 100	> 100 µM	> 100	> 100 µM	> 100	> 100 µM	> 100	> 100 µM
Oc1ccc(Cl)cc1Sc1cc(Cl)ccc1O	2.73	24.2 µM and 7.72 µM	3	33.6 µM and 9.29 µM	5.93	39.9 µM and 20.2 µM	3.19	45.5 µM and 11.4 µM	3.8	> 100	3.26	31.4 µM and 9.18 µM	2.48	57.8 µM and 7.47 µM	3.12	34.3 µM and 12.7 µM	2.17	24.2 µM and 5.56 µM	4.19	57.1 µM and 16 µM
CN(C)CCNC(=O)c1cccc2c1Oc1cccc([N+](=O)[O-])c1O2		30.5 µM		33.6 µM		36 µM		> 100 µM		45.5		44.7 µM		56.7 µM		39.5 µM		49.3 µM		> 100 µM
C[C@@]1(C(=O)O)CCC[C@]2(C)C1CC[C@]13C[C@@](O)(CO)[C@](O)(CC[C@]12O)C3 (some centres not stated)	75.1	> 100 µM	> 100	> 100 µM	> 100	> 100 µM	> 100	> 100 µM	> 100	> 100	> 100	> 100 µM	> 100	> 100 µM	> 100	> 100 µM	> 100	> 100 µM	> 100	> 100 µM
CCCCSc1nc(N)c2cn[nH]c2n1	15.9	31 µM	20.1	43.2 µM	19.8	48.8 µM	32.9	> 100 µM	29.7	> 100	15	30.4 µM	16.3	37.4 µM	16.6	54.3 µM	22.2	> 64.6 µM	37.3	> 76.8 µM
COc1ccc(/C=C2\COc3ccc(O)c(O)c3C2=O)cc1OC	2.47	8.28 µM	1.32	3.25 µM	2.17	6.18 µM	0.488	5.73 µM	0.467	> 100			1.7	17.4 µM	1.73	3.8 µM	2.02	5.28 µM	2.06	7.43 µM
Cc1c(Cl)cccc1NC(=O)c1sc2nc3c(cc2c1N)C(=O)CCC3	0.023	0.203 µM	0.169	> 100 µM	0.05	0.344 µM	0.0665	> 100 µM	0.0371	> 100	0.0658	> 100 µM	0.0463	12.9 µM	0.283	> 100 µM	0.044	> 56 µM	0.0698	> 100 µM
